A short description of assay [1]: Subcutaneous 80 μg abaloparatide versus placebo: fractures, BMD, TBS. The format is in vivo. The conditions noted are these: subcutaneous administration. The method, then:
In certain embodiments, the abaloparatide-SC treatment comprises subcutaneous administration of an aqueous formulation comprising abaloparatide (about 2 mg/mL) in an acetate buffer, with a pH of about 4.5 to about 5.6, or about 5.1. Optionally, the aqueous formulation further comprises phenol (about 5 mg/mL). In certain examples of these embodiments, the acetate buffer comprises tri-hydrate sodium acetate (about 5 mg/mL) with pH (e.g., about 4.5 to about 5.6, or about 5.1) adjusted with acetic acid. Unless specifically stated otherwise, comparative abaloparatide sc dose use an 80 μg dose delivered subcutaneously to the periumbilicular region of the abdomen of the patient.

For the next assay, the system named is rat femur fracture model. The experiment in a line: Rat femur fracture model, fracture healing. The format is in vivo. The text has this: Certain embodiments of the methods disclosed herein also include the use of the microprojection arrays as described herein in their various embodiments to accelerate fracture healing in a patient who has suffered one or more fractures and for which the fractures are not completely healed. Healing of bone fractures (eg long bone fractures) involves endochondral and intramembranous bone formation, which together form a callus that achieves union, stabilization, and gradual recovery of bone strength. […] Sixteen rats from each group were necropsied after 4 and 6 weeks of healing, with 12 fractured femurs per group used for micro-CT and biomechanical testing and the other 4 femurs used for micro-CT and histology.

Assay [2] has as its system ovariectomy-induced osteopenic rats and monkeys. The conditions noted are these: cited from earlier work.

Take “[Glu^22,25, Leu^23,28,31, Aib^29, Lys^26,30]hPTHrP(1-34)NH2 [abaloparatide]”: the “BMD and/or TBS at the lumbar spine, total hip, and femoral neck” value in assay [1] is on record as “improve”. Besides, the “callus stiffness, higher vs VEH” value in the assay with rat femur fracture model (5 ug/kg/d, week 4, three-point bending) is given as 60%; with rat femur fracture model (5 ug/kg/d, week 6), 112%; in the assay on rat femur fracture model (25 ug/kg/d, week 4, three-point bending), 96%. In the assay on rat femur fracture model (25 ug/kg/d, week 4), the “callus peak load, higher vs VEH” value is reported as 77%. The “callus area (histomorphometry)” value in the assay on rat femur fracture model (5 and 25 ug/kg/d, week 4, vs VEH) is “significantly greater callus area”. Moreover, in the assay with rat femur fracture model (5 and 25 ug/kg/d, weeks 4 and 6, vs VEH), the “callus bone volume, bone volume fraction, and BMC (micro-CT)” value is on record as “significantly greater”. In addition, in the assay with rat femur fracture model (5 or 25 ug/kg/d sc daily, week 4, vs VEH), the “cortical bridging across the fracture gap (semi-quantitative histologic scoring)” value was “significantly greater bridging”. The “callus peak load vs VEH” value in the assay with rat femur fracture model (both abaloparatide groups, week 6) is “numerically higher”. In addition, in assay [2], the bone loss result is “complete reversal of bone loss”.

The record behind these values is patent US10568937B2, “Formulations of abaloparatide, transdermal patches thereof, and uses thereof” (priority 2016, dated 2020).
